Key:
PD1 = molecular target: T1, PD1 (Homo sapiens, UniProt Q15116); assay: PATHHUNTER checkpoint signaling assay (PD1 activation / SHP1 recruitment); assay type: cell-based; conditions: Jurkat cells expressing PD1 and SHP1 co-incubated with PDL1-presenting U2OS cells, 2 h RT; peptides at 20 μM and 100 μM, in duplicate; FIG. 1
T1 construct: host or cells: Jurkat cells (PD1 and SHP1 EFC fusions), co-cultured with PDL1-presenting U2OS cells
Method: Peptides were tested for their ability to inhibit the binding of PDL1 to PD1 using PATHHUNTER® checkpoint signaling assays (DiscoverX).
Jurkat cells expressing PD1 and SHP1 proteins, each fused to a fragment of enzyme fragment complementation (EFC) system, were co-incubated with PDL1-presenting U2OS cells. […] Inhibitory peptides or antibodies added to the culture would reduce the light signal.
Cells in co-culture were incubated at room temperature (RT) for 2 h (PD1 assay). The assay signal was generated using the PATHHUNTER® Bioassay Detection kit. FoLD01 (SEQ ID NO:1), LD10 (SEQ ID NO:5), and LD12 (SEQ ID NO:6) peptides were tested in duplicate at two concentrations, 20 μM and 100 μM. Peptides were dissolved in water or DMSO and diluted in assay buffer.
Microplates were read following signal generation using a PerkinElmer ENVISION™ instrument for chemiluminescent signal detection. The percentage of inhibition efficacy was calculated using the following formula, in which “RLU” means relative light units: […]

[1] = test system: IFNγ-secreting antigen-specific CD8+ T cells; assay: AdPyCS mouse model, IFNγ ELISPOT of spleen cells; assay type: in vivo; conditions: mice immunized i.m. with AdPyCSP, peptide subcutaneously 1 μg, 10 μg; spleens ten days post-injection; relative to AdPyCS-only; one-way ANOVA; FIG. 2
Method: Groups of five mice were immunized intramuscularly with a recombinant replication defective adenovirus expressing the Plasmodium yoelli circumsporozoite protein (AdPyCSP) and then treated subcutaneously with peptides LD10da ([…], in which the first amino acid is a D-amino acid, 1 μg), FoLD01 (1 μg, 10 μg), or an anti-PD1 monoclonal antibody (10 μg). Ten days post-injection, mice were euthanized and individual spleens removed. The number of IFNγ-secreting antigen-specific CD8+ T cells were determined using an ELISPOT assay (FIG. 2).

[2] = test system: MC38 (colon carcinoma) cells; assay: MC38 tumor model; assay type: in vivo, mice; conditions: intra-tumorally 2× a week, 50 μg dose, normalized to day 0, Mann-Whitney test, P value 0.0499
Method: Mice were injected subcutaneously with 1×10^6 MC38 (colon carcinoma) cells and tumor volumes were measured on day 2, 5, 9, 12, and 16 (end of study) and normalized to day 0 values for each animal. When the mean tumor size reached approximately 80-120 mm^3, mice were randomized and treatment was started. Peptides were tested in an MC38 tumor model. FoLD01 peptide was administered intra-tumorally 2× a week (50 μg dose). Monoclonal antibodies were administered intraperitoneally 2× a week (5 mg/kg (anti-CTLA4) and 10 mg/kg (anti-PD1) dose). Statistical test used: Unpaired, non-parametric, two-tailed Mann-Whitney test. Control used: intra-tumor injection of DMSO diluted in PBS (for FoLD01 injected intra-tumorally).

[3] = test system: Pan02 (pancreatic adenocarcinoma) cells; assay: Pan02 tumor model; assay type: in vivo, mice; conditions: intra-tumorally 2× a week, 50 μg dose, normalized to day 0, Mann-Whitney test
Method: Mice were injected subcutaneously with 3×10^6 Pan02 (pancreatic adenocarcinoma) cells in the right rear flank. Tumor volumes were measured at least twice weekly in two dimensions using a caliper. When the mean tumor size reached approximately 80-120 mm^3, mice were randomized and treatment was started. FoLD04 was administered intra-tumorally 2× a week (50 μg dose). Monoclonal antibodies were administered intraperitoneally 2× a week (5 mg/kg (anti-CTLA4) and 10 mg/kg (anti-PD1) dose).
Tumor volumes were measured on day 4, 7, 11, 14, 18, 21, 25 and 27 (end of study) and normalized to day 0 values for each animal. Statistical test used: Unpaired, non-parametric, two-tailed Mann-Whitney test.
Control used: intra-tumor injection of DMSO diluted in PBS (for FoLD04 injected intra-tumorally).

T1 sequence (Q15116 25-288): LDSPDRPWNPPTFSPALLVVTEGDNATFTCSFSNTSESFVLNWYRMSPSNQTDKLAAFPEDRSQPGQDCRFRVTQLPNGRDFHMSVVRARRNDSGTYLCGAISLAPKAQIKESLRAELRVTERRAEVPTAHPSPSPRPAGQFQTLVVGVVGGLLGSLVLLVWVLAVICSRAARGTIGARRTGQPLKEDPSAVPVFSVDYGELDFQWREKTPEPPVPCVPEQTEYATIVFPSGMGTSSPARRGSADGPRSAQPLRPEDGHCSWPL

| Substance | inhibition of PD1-PDL1 interaction (percentage of inhibition efficacy) (PD1) | number of IFNγ-secreting antigen-specific CD8+ T cells [1] | tumor volume relative to intra-tumoral DMSO/PBS control [2] | tumor volume relative to DMSO/PBS IT control [3] |
| --- | --- | --- | --- | --- |
| FoLD01: peptide, amino acid sequence STNQVSALRVNILFPLSQ (SEQ ID NO:1) (FoLD01 peptide) | inhibited PD1-PDL1 interaction to a greater extent than peptides LD10 and LD12 | enhances the number of antigen-specific CD8+ T cells relative to stimulation with antigen only | significantly decreased tumor volume | – |
| FoLD04: peptide, amino acid sequence QVSALRVNILF (SEQ ID NO:4) (listed as Fusarium oxysporum) | – | – | – | significantly decreased tumor volume |
